# Legend:
# [1] = Solubility assessment at various pH levels (solubility profile); type: physicochemical; conditions: 0.15M NaCl solution, saline or isotonic, thermodynamic from solid
# Procedure: For solubility assessment at various pH levels sufficient material to produce a maximum concentration of 10 mg·ml^−1 of API was treated with 0.15M NaCl solution and then the pH adjusted with HCl or NaOH solutions to achieve the desired pH levels. The suspensions were allowed to equilibrate for 2 hours and the pH measured and adjusted if necessary. Suspensions were then filtered and the amount of dissolved API quantified by HPLC against a standard reference solution.
# Analysis was performed on an Agilent HP1100 series system equipped with a diode array detector and using ChemStation software vB.02.01-SR1.
# The solubility of both the free acid and amorphous sodium salt was determined at a range of pH values.
# [2] = Solubility in a range of solvents (crystallisation experiments); type: physicochemical; conditions: organic solvents; water, cyclohexane, heptane unsuitable
# Procedure: 20 mg of Compound 1 was weighed into a HPLC vial. 40 μL of ethanol was added and the vial was heated to reflux with a hot air gun. The solution was cooled to ambient temperature and the solids were filtered off. Crystalline Compound 1 (Pattern 1) was obtained as determined by XRPD. In the same manner as described from ethanol, the following solvents also provided crystalline Compound 1 (Pattern 1): methanol, 2-methoxyethanol, ethanol, 1-propanol, 2-propanol, 1-butanol, butyl acetate, acetone, methylethyl ketone, anisole, toluene. 5 Volumes (i.e. 100 μL) of the following solvents with heating also provided crystalline Compound 1 (Pattern 1): nitromethane, acetonitrile, ethyl acetate, cumene.
# Compound 1 dissolved in 2 volumes (i.e. 40 μL) of the following solvents at ambient temperature: 1-4-dioxane, tetrahydrofuran. The vials were uncapped and allowed to slowly evaporate. This provided crystalline Compound 1 (Pattern 1).
# [3] = Metabolite identification in liver microsomes; type: in vitro ADME, rat, dog, monkey, human; conditions: human microsomes
# Procedure: To determine the qualitative metabolic profile, 30 μM of Compound 1 was incubated aerobically with rat, dog, monkey, or human liver microsomes (1 mg/mL). The incubations were performed in phosphate buffer at pH 7.4, 37° C., with the reaction initiated by the addition of P-NADPH, GSH and/or UDPGA (1, 5 and 2 mM final concentration, respectively). The reaction was terminated by the addition of 3 times incubation volume of acetonitrile after 60 minutes. The sample was centrifuged and the supernatant was transferred, nitrogen blow dried and reconstituted in 50% acetonitrile in water for LC/MS analysis.
# (§1) LC/MS/MS analysis was carried out with a Sciex API-4000Qtrap tandem mass spectrometer (Applied Biosystems/Life Technologies, Carlsbad, Calif.) interfaced to a high-performance liquid chromatography system consisting of an Agilent 1200 series pump (Foster City, Calif.) and a LEAP Technologies PAL autoinjector (Carrboro, N.C.).
# (§2) Parent/metabolite analysis was conducted in the positive ion mode (ESI) by multiple reaction monitoring of parent. The mobile phases contained 10 mM ammonium acetate in water with 0.05% formic acid (solvent A) and 10 mM ammonium acetate in 50% acetonitrile/50% methanol with 0.05% formic acid (solvent B). For Compound 1, the flow rate was maintained at 1 mL/min and the total run time was 2.5 min. Analytes were separated on a YMC ODS-AQ column (2.1×150 mm; 3 μm) and eluted with a linear gradient as follows: • 1. mobile phase was held for 0.5 min at 5% B, • 2. B was increased from 5% to 95% over the next 0.2 min, • 3. B was held constant for 1.3 min at 95%, and • 4. B was returned to the initial gradient conditions.
# (§3) GSH adducts were investigated in microsomes, hepatocytes and rat bile using several methods including the neutral loss of pyroglutamate (129 Da) as well as a precursor ion scans of Compound 1 (105 Da, 318 Da and 438 Da).
# For metabolite quantitation, the flow rate was maintained at 0.25 mL/min and the total run time was 60 min. Analytes were separated using a linear gradient as follows: • 1. mobile phase was held for 5 min at 5% B, • 2. […]
# [4] = Metabolite identification in hepatocytes; type: in vitro ADME, rat, dog, monkey, human; conditions: rat, dog or human hepatocytes
# Procedure: Rat, dog, monkey, or human hepatocytes were thawed according to the supplier's instructions. Cells were counted using the Trypan Blue method, and then diluted to 1×10^6 viable cells/ml with KB medium. Compound 1 was tested at 30 μM and incubated for up to 2 hours in rat hepatocytes and 4 hours in dog, monkey or human hepatocytes at 37° C. Reactions were terminated with addition of 3 times incubation volume of acetonitrile, centrifuged, and supernatants were transferred, nitrogen blow dried and reconstituted in 50% acetonitrile in water for LC/MS analysis.
# as §1, §2, §3
# For metabolite quantitation, the flow rate was maintained at 0.25 mL/min and the total run time was 60 min. Analytes were separated using a linear gradient as follows: • 1. mobile phase was held for 5 min at 5% B, • 2. B was increased from 5% to 95% over the next 45 min. • 3. […]
# [5] = test system: human A2058 melanoma cells; experiment: LPA1 Chemotaxis Assay; type: cell-based; conditions: 100 nM LPA, read-out: IC50, LPA-driven chemotaxis
# Procedure: Chemotaxis of the A2058 human melanoma cells was measured using the Neuroprobe ChemoTx® System plates (8 μm pore size, 5.7 mm diameter sites). The filter sites were coated with 0.001% fibronectin (Sigma) in 20 mM Hepes, pH 7.4 and allowed to dry. A2058 cells were serum-starved for 24 hours, then harvested with Cell Stripper and resuspended in DMEM containing 0.1% fatty-acid-free bovine serum albumin (BSA) to a concentration of 1×10^6/ml. Cells were mixed with an equal volume of test compound (2×) in DMEM containing 0.1% fatty-acid-free BSA and incubated at 37° C. for 15 minutes. LPA (100 nM in DMEM containing 0.1% fatty-acid-free BSA) or vehicle was added to each well of the lower chamber and 50 μl of the cell suspension/test compound mix was applied to the upper portion of the ChemoTx plate. Plates were incubated at 37° C. for three hours and then the cells removed from the upper portion by rinsing with PBS and scraping. The filter was dried then stained with HEMA 3 Staining System (Fisher Scientific). The absorbance of the filter was read at 590 nm and IC50s were determined using Symyx Assay Explorer.
# LPA4 = LPA4 (Homo sapiens, UniProt Q99677); experiment: LPA4 Calcium Flux Assay; type: cell-based; conditions: read-out: Ca Flux IC50 LPA4
# Sequence of LPA4 (Q99677 whole entry, species assumed): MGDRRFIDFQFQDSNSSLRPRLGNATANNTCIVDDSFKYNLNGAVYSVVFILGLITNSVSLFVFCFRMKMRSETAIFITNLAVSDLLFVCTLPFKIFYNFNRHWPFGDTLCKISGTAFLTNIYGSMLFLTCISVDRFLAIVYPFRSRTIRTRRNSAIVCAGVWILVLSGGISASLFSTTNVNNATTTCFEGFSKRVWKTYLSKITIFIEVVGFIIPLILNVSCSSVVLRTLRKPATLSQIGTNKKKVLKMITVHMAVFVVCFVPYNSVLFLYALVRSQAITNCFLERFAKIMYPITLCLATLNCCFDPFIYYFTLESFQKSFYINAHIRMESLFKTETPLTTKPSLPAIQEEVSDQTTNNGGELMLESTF
smiles,measurement,setting,value
"Cc1noc(-c2ccc(-c3ccc(C4(C(=O)O)CC4)cc3)cc2)c1NC(=O)O[C@H](C)c1ccccc1 [Compound 1, 1-{4′-[3-methyl-4-((R)-1-phenyl-ethoxycarbonylamino)-isoxazol-5-yl]-biphenyl-4-yl}-cyclopropanecarboxylic acid]",solubility at 2 h,"[1]; Target pH 3, pH adjusted with HCl or NaOH",< 0.001 mg/mL
same,solubility at 2 h,"[1]; Target pH 4, pH adjusted with HCl or NaOH",< 0.001 mg/mL
same,solubility at 2 h,"[1]; Target pH 5, pH adjusted with HCl or NaOH",< 0.001 mg/mL
same,solubility at 2 h,"[1]; Target pH 6, pH adjusted with HCl or NaOH",< 0.001 mg/mL
same,solubility at 2 h,"[1]; Target pH 7, pH adjusted with HCl or NaOH",0.0033 mg/mL
same,solubility at 2 h,"[1]; Target pH 8, pH adjusted with HCl or NaOH",0.035 mg/mL
same,solubility at 2 h,"[1]; Target pH 9, pH adjusted with HCl or NaOH",0.93 mg/mL
same,solubility at 2 h,"[1]; Target pH 11, pH adjusted with HCl or NaOH",13 mg/mL
same,solubility in a range of solvents,[2],good solubility in a range of solvents
same,GSH adduct in microsomes,[3],No GSH adduct was observed
same,GSH adduct in hepatocytes,[4],No GSH adduct was observed
same,IC50,[5],< 0.1 µM
same,IC50,LPA4,> 1 µM
